Details: for log10 BCF / log10 biotransformation half-life (days): fish

Row | Compound | melting point | boiling point | also measured
1 | N#Cc1cnc2ccccc2c1 | 109 °C |  | 
2 | O[C@@H]1CCCC[C@H]1Cl | 29 °C |  | 
3 | NN=C(c1ccccc1)c1ccccc1 | 96.5 °C |  | 
4 | O=C(CCCN1CCC2(CC1)C(=O)NCN2c1ccccc1)c1ccc(F)cc1 | 142 °C |  | 
5 | OC(CCN1CCCCC1)(c1ccccc1)c1ccccc1 | 120 °C |  | 
6 | C#CCl | -126 °C | -30 °C | 
7 | CCCCCCCCCCCCN1CC(C(=O)O)CC1=O (stereo not drawn) | 39 °C |  | 
8 | S=C(Cl)Cl |  | 73 °C | 
9 | CCOC(=O)C(C)C | -88.2 °C | 110 °C | log10 vapour pressure (mmHg): 1.4
10 | CN(C)c1ccc(-c2ccc(N(C)C)cc2)cc1 | 194 °C |  | 
11 | Cc1ccc2cc(N(C)C)ccc2n1 | 101 °C | 319 °C | 
12 | CC(=O)Oc1cccnc1 |  |  | ready biodegradability: readily biodegradable
13 | Cc1ccc(Br)c(C)c1 | -17 °C | 205 °C | 
14 | COc1c(Cl)c(Cl)c(O)c(Cl)c1Cl | 116 °C |  | 
15 | CCCC | -138 °C |  | log10 Koa: 1.53; log10 vapour pressure (mmHg): 3.26; ready biodegradability: readily biodegradable
16 | O=[N+]([O-])c1ccc(CCl)cc1 | 71 °C |  | ready biodegradability: not readily biodegradable
17 | CNC1(c2ccccc2Cl)CCCCC1=O.Cl (stereo not drawn) | 262 °C |  | 
18 | Cc1ccc(SSc2ccc(C)cc2)cc1 | 47.5 °C |  | 
19 | NNC(=O)c1ccccc1[N+](=O)[O-] | 124 °C |  | 
20 | O=[N+]([O-])c1ccccc1O | 44.8 °C | 216 °C | log10 Henry constant (atm·m³/mol): -4.89; log10 vapour pressure (mmHg): -0.947; ready biodegradability: not readily biodegradable; log10 BCF: 1.34
21 | C=C(C)C(=O)OC1CCCCC1 |  |  | ready biodegradability: readily biodegradable
22 | C=CC(=O)OCCCCCCCC |  |  | log10 vapour pressure (mmHg): -0.994; ready biodegradability: readily biodegradable
23 | CCOc1cccc(C=O)c1O | 67 °C | 264 °C | 
24 | Cc1[nH]c(=O)n(C(C)(C)C)c(=O)c1Cl | 176 °C |  | log10 Koc (L/kg): 1.66; log10 vapour pressure (mmHg): -6.33; ready biodegradability: not readily biodegradable
25 | O=C(NC(=O)c1c(F)cccc1F)Nc1cc(Cl)c(Oc2ncc(C(F)(F)F)cc2Cl)c(Cl)c1 |  |  | log10 Henry constant (atm·m³/mol): -11.7

Row | Compound | melting point | boiling point | also measured
26 | Clc1ccc(Br)cc1 | 68 °C | 196 °C | log10 vapour pressure (mmHg): -0.588
27 | NC(=O)CBr | 89 °C |  | 
28 | CC(C)c1ncc([N+](=O)[O-])n1C | 60 °C |  | 
29 | CC#CCCCCCCCC | -30.1 °C | 204 °C | 
30 | O=C(O)c1ccc(O)c([N+](=O)[O-])c1 | 230 °C |  | 
31 | CC1CCCCC1C (stereo not drawn) |  | 126 °C | log10 biodegradation half-life (days): 1.26; log10 vapour pressure (mmHg): 1.2
32 | ClCC(Cl)(Cl)Cl | -70.2 °C | 130 °C | log10 Henry constant (atm·m³/mol): -2.6; log10 vapour pressure (mmHg): 1.08
33 | CCC(C(C)C)C(C)C | -122 °C | 137 °C | log10 vapour pressure (mmHg): 1
34 | CC(C)(C)CCl | -20 °C | 84.3 °C | 
35 | Cc1cc(C)c([N+](=O)[O-])c(C)c1 | 44 °C | 255 °C | 
36 | O=[N+]([O-])c1ccccc1 | 5.7 °C | 211 °C | log10 Henry constant (atm·m³/mol): -4.62; log10 Koc (L/kg): 1.94; log10 vapour pressure (mmHg): -0.611; ready biodegradability: not readily biodegradable; log10 BCF: 0.67; log10 biotransformation half-life (days): -0.93
37 | CCCCc1cc2ccccc2c2ccccc12 |  |  | log10 biotransformation half-life (days): 0.29
38 | CCCCCCC(O)CCCC (stereo not drawn) | -3.5 °C | 229 °C | 
39 | CC(O)C(O)CO (stereo not drawn) |  |  | log10 vapour pressure (mmHg): -2.47
40 | OC1(c2ccc(Cl)c(C(F)(F)F)c2)CCN(CCCC(c2ccc(F)cc2)c2ccc(F)cc2)CC1 | 106 °C |  | 
41 | CCCCCCCCCCCCBr | -9.5 °C | 276 °C | log10 vapour pressure (mmHg): -2.41
42 | O=c1ccocc1 | 32.5 °C | 212 °C | 
43 | Clc1ccc(Oc2cccc(Cl)c2)cc1 |  |  | log10 vapour pressure (mmHg): -3.19
44 | COC(=O)c1cccc(Br)c1 | 32 °C |  | 
45 | CC(C)(C)C(=O)OCOC(=O)[C@@H]1N2C(=O)[C@@H](N=CN3CCCCCC3)[C@H]2SC1(C)C | 119 °C |  | 
46 | CCn1c(C)nc2ccccc21 | 51 °C | 296 °C | 
47 | CCCCCCCCCCCCCO | 32.5 °C |  | log10 vapour pressure (mmHg): -3.36; ready biodegradability: readily biodegradable
48 | CCC(C)CCBr (stereo not drawn) |  | 148 °C | 
49 | c1ccc(CNc2ccccc2)cc1 | 37.5 °C | 306 °C | 
50 | CC(CC=O)CC(C)(C)C (stereo not drawn) |  | 173 °C | log10 vapour pressure (mmHg): -1.1; ready biodegradability: not readily biodegradable

Row | Compound | melting point | boiling point | also measured
51 | CC(=O)c1c[nH]c2ccccc12 | 192 °C |  | 
52 | O=CC=Cc1ccc([N+](=O)[O-])cc1 | 142 °C |  | 
53 | CCOC(CN(CC)CC)OCC |  | 194 °C | 
54 | CC(=O)OC(c1ccccc1)C(Cl)(Cl)Cl (stereo not drawn) | 87.5 °C |  | 
55 | Ic1cc(I)cc(I)c1 | 184 °C |  | 
56 | Nc1ccccc1CO | 83.5 °C | 273 °C | 
57 | Cc1cncc(C)n1 | 47.5 °C | 156 °C | 
58 | C1CCC2CC2C1 (stereo not drawn) |  | 116 °C | log10 vapour pressure (mmHg): 1.36
59 | Cc1ccccc1C(=O)Nc1cccc(OC(C)C)c1 | 92.5 °C |  | log10 vapour pressure (mmHg): -6.38
60 | Cc1ccn(-c2ccccc2)n1 | 37 °C | 255 °C | 
61 | [N-]=[N+]=CC(=O)OC[C@H](N)C(=O)O | 154 °C |  | 
62 | COc1ccsc1CN(C(=O)CCl)c1c(C)cccc1C | 73 °C |  | log10 vapour pressure (mmHg): -6.68
63 | CC(=O)N1CCC(=O)CC1 |  | 218 °C | 
64 | CCc1cccc(O)c1 | -4 °C | 218 °C | log10 Henry constant (atm·m³/mol): -6.2; log10 vapour pressure (mmHg): -1.3; ready biodegradability: readily biodegradable
65 | CNC(=O)Oc1ccc2c(c1)[C@]1(C)CCN(C)[C@@H]1N2C | 106 °C |  | 
66 | CCCC(=O)Oc1c(Br)cc(C#N)cc1Br |  |  | log10 Koc (L/kg): 3.03
67 | FC(F)(Cl)Cl | -158 °C | -29.8 °C | log10 Henry constant (atm·m³/mol): -0.465; log10 vapour pressure (mmHg): 3.69; ready biodegradability: not readily biodegradable; log10 BCF: 0.79
68 | CCOC(=O)c1ccc(NC(=O)CCl)cc1 |  |  | ready biodegradability: readily biodegradable
69 | O[C@H](CS)[C@H](O)CS | 62.8 °C |  | 
70 | CC(=O)C[C@H](C)O |  | 177 °C | 
71 | Oc1ccccc1O | 105 °C | 246 °C | log10 vapour pressure (mmHg): -2.44; ready biodegradability: readily biodegradable
72 | O=[N+]([O-])C1CCCCC1 | -34 °C | 205 °C | 
73 | CCOC(=O)Nc1ccc2c(c1)N(C(=O)CCN1CCOCC1)c1ccccc1S2 | 156 °C |  | 
74 | CC(/C=C/C=C(C)/C=C/[C@@]1(O)C(C)(C)CCC[C@@]1(C)O)=C\C=C\C=C(C)\C=C\C(=O)O | 213 °C |  | 
75 | Cc1cc(C)c2c(c1)CC(C)(C)CC2 |  |  | log10 biotransformation half-life (days): 0.32

Row | Compound | melting point | boiling point | also measured
76 | FC(F)(F)C(Cl)C(F)(F)F | -120 °C | 14.1 °C | 
77 | ClC=C(Cl)CCl |  | 142 °C | log10 vapour pressure (mmHg): 0.643
78 | O=C1OC2(OC=C(c3ccccc3)C2=O)c2ccccc21 (stereo not drawn) | 154 °C |  | 
79 | COc1cc(-c2ccc(N=C=O)c(OC)c2)ccc1N=C=O | 114 °C |  | 
80 | CCOC(=O)C(C)O (stereo not drawn) |  | 154 °C | log10 vapour pressure (mmHg): 0.574
81 | CC(C)(Oc1ccc(Cl)cc1)C(=O)OCCCOC(=O)C(C)(C)Oc1ccc(Cl)cc1 | 52 °C |  | 
82 | CC(C)(Sc1cc(C(C)(C)C)c(O)c(C(C)(C)C)c1)Sc1cc(C(C)(C)C)c(O)c(C(C)(C)C)c1 | 125 °C |  | 
83 | CCC(C)C(=O)NC1CCC(=O)N(CCc2ccccc2)C1=O (stereo not drawn) | 108 °C |  | 
84 | COc1ccc([C@@H]2Sc3ccccc3N(CCN(C)C)C(=O)[C@@H]2OC(C)=O)cc1 | 210 °C |  | 
85 | C=CCc1cccc(C)c1O |  | 232 °C | 
86 | O=[N+]([O-])c1ccc(CO)cc1 | 96.5 °C |  | 
87 | CCN1CCCCC1 |  | 131 °C | 
88 | CCCCCCN1CCCC1=O | 4 °C |  | 
89 | CC(=O)OCC(CO)OC(C)=O (stereo not drawn) |  | 259 °C | ready biodegradability: readily biodegradable
90 | CCOC(=O)n1ccn(C)c1=S | 124 °C |  | 
91 | CCCCC(=O)OCC(C)C |  | 179 °C | 
92 | C[C@H]1CC[C@@H]2[C@H](C1)C2(C)C |  | 169 °C | 
93 | O=Cc1ccc2c(c1)OCO2 | 37 °C | 263 °C | log10 vapour pressure (mmHg): -2; ready biodegradability: readily biodegradable
94 | CC(C)CCCC(C)(C)C | -105 °C | 149 °C | 
95 | CCCCC(C)CCC (stereo not drawn) | -113 °C | 142 °C | log10 biodegradation half-life (days): 0.699; log10 vapour pressure (mmHg): 0.835
96 | N#CCc1cccc([N+](=O)[O-])c1 | 63 °C |  | 
97 | COc1c(Cl)cc(Cl)cc1Cl | 61.5 °C | 241 °C | log10 BCF: 2.86
98 | CCOP(=O)(OCC)Oc1cc(C)nc(C(C)C)n1 |  |  | log10 BCF: -0.35
99 | CCc1ccc(C(=O)O)cc1 | 112 °C |  | 
100 | OCc1c(Cl)cccc1Cl | 98 °C |  | log10 BCF: 0.47; log10 biotransformation half-life (days): -1.37

Row | Compound | melting point | boiling point | also measured
101 | N#Cc1cccs1 |  | 192 °C | 
102 | FC(F)(F)C(F)(F)C(F)(F)C(F)(F)C(F)(F)C(F)(F)C(F)(F)C(F)(F)C(F)(F)C(F)(F)C(F)(F)C(F)(F)C(F)(F)C(F)(F)C(F)(F)C(F)(F)C(F)(F)C(F)(F)C(F)(F)C(F)(F)C(F)(F)C(F)(F)C(F)(F)C(F)(F)F | 189 °C |  | 
103 | CC(=O)Nc1ccccc1C | 110 °C | 296 °C | 
104 | CCCCCCCC(=O)N(CCO)CCO |  |  | ready biodegradability: readily biodegradable
105 | NC(=O)Nc1cccc(Cl)c1 |  |  | log10 Koc (L/kg): 2.01
106 | Cn1cnc([N+](=O)[O-])c1Sc1ncnc2nc[nH]c12 | 244 °C |  | 
107 | C=CC[C@]1(O)CC[C@H]2[C@@H]3CCC4=CC(=O)CCC4=C3C=C[C@@]21C | 120 °C |  | 
108 | O=C1CCc2cccc3c2N1CC3 | 112 °C |  | log10 vapour pressure (mmHg): -5.92
109 | Clc1ccc(-c2ccccc2)cc1 | 78.8 °C | 293 °C | log10 Henry constant (atm·m³/mol): -3.24; log10 Koa: 6.8; log10 vapour pressure (mmHg): -1.98; ready biodegradability: readily biodegradable
110 | CC1OC1C (stereo not drawn) | -82.5 °C | 58.2 °C | 
111 | CCOc1ccc(Cc2nccc3cc(OCC)c(OCC)cc23)cc1OCC | 100 °C |  | 
112 | C[Si](C)(Cl)O[Si](C)(C)O[Si](C)(C)Cl | -53 °C | 184 °C | 
113 | COc1ccccc1C#N | 24.5 °C | 256 °C | 
114 | CC(C)N1C(=O)N(c2ccccc2)CSC1=NC(C)(C)C | 105 °C |  | log10 vapour pressure (mmHg): -5.03
115 | Sc1cccc2ccccc12 |  | 285 °C | ready biodegradability: not readily biodegradable
116 | Clc1ccccc1-c1c(Cl)ccc(Cl)c1Cl |  |  | log10 biotransformation half-life (days): 2.38
117 | COC(C)(C)C | -109 °C | 55.2 °C | log10 Henry constant (atm·m³/mol): -3.23; log10 Koa: 2.58; log10 vapour pressure (mmHg): 2.4; ready biodegradability: not readily biodegradable; log10 BCF: 0.18; log10 biotransformation half-life (days): -0.88
118 | CCCCCCCCCCOc1ccc(C(=O)O)cc1 | 114 °C |  | 
119 | Cc1cccc(C)c1NC1=NCCCS1 | 140 °C |  | 
120 | CC(C)(C)CCCl |  | 115 °C | 
121 | Cc1cccc(O)c1C(=O)O | 173 °C |  | 
122 | O=C1CCC[C@@H]2[C@H]3CCCN4CCC[C@@H](CN12)[C@@H]34 (racemic) | 76 °C |  | 
